Laboratory results from publication PMC10439185 (Cell Reports Medicine, 2023).

Columns and labels:
PPT1 (endogenous, BMDMs) = target: T1, PPT1 (endogenous, BMDMs) (Mus musculus, UniProt O88531); experiment: cellular thermal shift assay, immunoblot; assay type: cell-based; details: intact BMDMs, 37-62 °C, 3 min
T1 sequence (O88531 28-306): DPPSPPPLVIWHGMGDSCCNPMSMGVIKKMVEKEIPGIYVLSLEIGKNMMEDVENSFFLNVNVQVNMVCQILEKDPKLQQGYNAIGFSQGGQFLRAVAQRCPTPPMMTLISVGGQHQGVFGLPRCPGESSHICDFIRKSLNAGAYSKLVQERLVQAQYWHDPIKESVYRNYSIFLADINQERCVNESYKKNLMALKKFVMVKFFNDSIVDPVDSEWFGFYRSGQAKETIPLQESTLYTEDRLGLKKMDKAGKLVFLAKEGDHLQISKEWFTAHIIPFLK

PPT1 = target: T2, PPT1 (Mus musculus, UniProt O88531); experiment: microscale thermophoresis; assay type: binding
T2 sequence (O88531 28-306): T1 sequence (O88531 28-306)

With `O=C(O)C(=O)Cc1ccccc1` [phenylpyruvate] the thermal shift (PPT1 (endogenous, BMDMs)) was “phenylpyruvate treatment significantly changed PPT1 protein stability after heating” and the Kd (PPT1) was 863 µM.
